In this assay the test system is tumeur M₄. Put plainly: Inhibition of development of lung metastases (M4 tumour cells injected i.v. with peptide). The conditions noted are these: injected in tail vein with 10⁵ M₄ cells, lung colonies counted after 15 days, PBS control 117,5 ± 14,4. It counts as in vivo, souris C57BL/6. The procedure: On a utilisé la tumeur M₄, une sous-lignée obtenue par sélection d'un sarcome induit par le benzopyrène chez la souris C57BL/6 (Mantovani Int. J. Cancer, 22, 741, 1978).
Les cellules M₄ ont été désagrégées avec de la DNAse et de la collagènase pendant 30 minutes à 37°C. On a lavé les cellules deux fois avec du PBS et on les a remis en suspension dans le même tampon à la concentration de […]. On a injecté lentement dans le veine de la queue de souris C57BL/6 0,2 ml de PBS contenant différentes concentrations de peptide et 10⁵ cellules M₄/souris.
Au bout de 15 jours on a tué les souris et excisé les poumons, et on les a fixés avec une solution de Bouin. On a compté visuellement les colonies. Les résultats obtenus avec le peptide KQRGDF sont donnés dans le tableau suivant.

Consider “H-KQRGDF-OH [KQRGDF, H-Lys-Gln-Arg-Gly-Asp-Phe-OH]”, for which the Nombre de colonie by setting is: (0,75 mg/souris) 25,3 ± 9,4; (1,5 mg/souris) 0,2; (3,0 mg/souris) 0.

For the origin of these results see patent EP0298820A1, “Peptide derivatives and their therapeutic application” (INSTITUT NATIONAL DE LA SANTE ET DE LA RECHERCHE MEDICALE …, priority 1987, dated 1989).
